Our source for the TGI and GI50 values is PubChem BioAssay (NCI).

Holding throughout (test): DTP human tumour cell line panel, 48 h
Assay [1] concerns KM20L2 colon.
In assay [2] the test system is HOP-18 NSCLC.
The test system of assay [3] is SNB-78 CNS.
Assay [4] relates to DMS 273 small cell lung.
Assay [5] has as its system DMS 114 small cell lung.
The subject of assay [6] is MDA-N.
In assay [7] the test system is XF 498 CNS.
Assay [8] has as its system DLD-1 colon.
In assay [9] the test system is RXF-631 renal.

Each structure is given as a SMILES string.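 A five-concentration, 48-hour dose response in 96-well plates underlies each endpoint, interpolated linearly between surrounding concentrations. Here, GI50 denotes the concentration required for 50% inhibition of growth. TGI: concentration producing complete growth inhibition.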 A value given as a limit tells only on which side of the number the result lay.

What is called TGI is the concentration giving total growth inhibition. A low value points to more potent growth arrest. For `O=c1c2c(-c3ccccc3)c3ccccc3nc2cnn1-c1ccccc1`, the TGI in [1], in assay [2], in assay [3], in assay [4] and in assay [5] was above 100 µM each time.

In assay [6], `COc1ccc2c(c1)CN([C@@H](C)[C@H]1CC[C@H]3[C@@H]4CC[C@H]5C[C@@H](O)CC[C@]5(C)[C@H]4CC[C@]13C)CO2` had a TGI of 3.38 µM.

Take `Clc1ccccc1CN1COc2c(ccc3cccnc23)C1`: the total growth inhibition concentration (TGI) was 22.4 µM in assay [7]; 35.9 µM in assay [1]; 17.5 µM in [8]; 14 µM in [3]; 11.1 µM in assay [4]; 6.19 µM in [5].

Regarding `N=c1c2ccccc2sc2nc3ccccc3n12`, the TGI in assay [7], in [8], in assay [2], in assay [3], in assay [4] and in assay [5] was above 100 µM throughout.

Molecule `Nc1nc(N)c2cc(Sc3ccc4ccccc4c3)ccc2n1` returned a TGI in assay [6] of 4.66 µM.

On to `O=[N+]([O-])c1cc([As](Br)c2ccc(O)c([N+](=O)[O-])c2)ccc1O`, for which the total growth inhibition concentration (TGI) in [6] was found to be 3.4 µM.

Turning to `COC/N=C(\NC#N)NCOC`, the TGI in assay [7] is above 100 µM; in assay [9], above 100 µM; in [1] it was above 100 µM; in assay [8], above 100 µM; in assay [2], above 100 µM; in assay [4] it was above 81.5 µM. In assay [5], this molecule returned a TGI above 72.5 µM.

For `O=C1/C(=C\c2ccco2)Oc2ccccc21`, the TGI in assay [6] was above 100 µM.

Turning to `COc1ccc(O)c(C(=O)CCC(=O)O)c1`, the total growth inhibition concentration (TGI) in assay [7], in assay [9], in [8], in assay [3], in assay [4] and in assay [5] was above 100 µM each time.

Regarding `C1=Cc2nc1c(-c1ccccc1)c1ccc([nH]1)c(-c1ccccc1)c1nc(c(-c3ccccc3)c3ccc([nH]3)c2-c2ccccc2)C=C1`, the concentration for total growth inhibition (TGI) in assay [9], in assay [1], in [8], in assay [2], in [3] and in assay [4] was above 100 µM each time. The molecule also gave a total growth inhibition concentration (TGI) in [5] above 100 µM.

As to `COC(=O)c1cc(=O)nc2cc3cccccc3n12`, the total growth inhibition concentration (TGI) in assay [7], in [1], in assay [8] and in assay [2] was above 100 µM in each case.

With `CN(C)N1C(=O)SCC(c2ccccc2)(c2ccccc2)C1=O`, the TGI in [6] was above 100 µM.

`CCOc1ccc(N=C(NC(=O)c2ccccc2)SC)cc1`: the total growth inhibition concentration (TGI) in assay [1], in assay [8], in [2], in assay [3], in assay [4] and in [5] was above 100 µM in each case.

Consider `CC1CC2(S(=O)(=O)c3ccccc3)ON1CC2S(=O)(=O)c1ccccc1` (configuration not stated), for which the total growth inhibition concentration (TGI) in assay [7], in assay [9], in assay [1], in [8], in assay [4] and in assay [5] was above 100 µM throughout.

`CO[C@H]1/C=C/O[C@@]2(C)Oc3c(C)c(O)c4c(O)c(c(/C=N/N5CCN(C)CC5)c(O)c4c3C2=O)NC(=O)/C(C)=C\C=C\[C@H](C)[C@H](O)[C@@H](C)[C@@H](O)[C@@H](C)[C@H](OC(C)=O)[C@@H]1C` gave a TGI in assay [6] above 100 µM.

Turning to `COc1ccccc1-c1cc(=O)c2cc(C)c(C)c(C(=O)O)c2o1`, the total growth inhibition concentration (TGI) in [7], in assay [1], in [8], in [3], in assay [4] and in assay [5] was above 100 µM in each case.

For the molecule `COc1ccc(/C=C2\CCC(CCN(C)C)(C3=CCCC3)C2=O)cc1` (configuration not stated), the TGI in assay [1] came out at 28.3 µM; in assay [8] it was 79.2 µM; in [2], 66.5 µM; in assay [3], 56.2 µM; in [4], 31.1 µM; in assay [5], 31.2 µM.

Turning to `CC(/C=C/C(O)=C1/C(=O)CNC1=O)=C\[C@@H](C)[C@H]1O[C@@]2(C)O[C@H](C(=O)[C@@H]3O[C@@]32C)[C@@H]1C`, the concentration for total growth inhibition (TGI) in assay [6] was above 100 µM.

Consider `CCOc1cccc2c1N[S@@](=O)S2`, for which the total growth inhibition concentration (TGI) in assay [7], in assay [9], in assay [1], in assay [8], in [3] and in [4] was above 100 µM each time.

On to `OC1=CN=COc2ccccc21`, for which the TGI in [9], in assay [1], in assay [8], in [3], in [4] and in assay [5] was above 100 µM each time.

On to `CCCCCCC(O)CC[C@H]1CCC[C@@H](C)N1` (some centres not stated), for which the concentration for total growth inhibition (TGI) in assay [1] is below 10 µM; in [8], above 100 µM; in assay [2], above 100 µM; in [3], above 100 µM; in assay [4] it was above 100 µM; in assay [5], above 31.6 µM.

As to `CCC1=CCN(c2cc(C)ccn2)OC1c1ccccc1` (configuration not stated), the TGI was 71.2 µM in assay [7]; 73.1 µM in [9]; above 100 µM in [1]; above 100 µM in [8]; above 100 µM in assay [2]; above 100 µM in assay [3]. The TGI in assay [4] and in [5] was above 100 µM each time.

As to `COC(=O)C(C(=O)C(=O)Nc1ccc(C)cc1C)c1csc(-n2nc(-c3ccccc3)cc2-c2ccccc2)n1` (configuration not stated), the total growth inhibition concentration (TGI) in [7], in assay [9], in assay [1], in [8], in [2] and in assay [3] was above 100 µM throughout. The total growth inhibition concentration (TGI) in assay [4] and in assay [5] was above 100 µM in each case.

Take `CC1(C)COC2C(N(Cc3ccccc3)Cc3ccccc3)C(=O)N21` (configuration not stated): the total growth inhibition concentration (TGI) in assay [1], in assay [8], in assay [2] and in assay [3] was above 100 µM in each case.

With `C=CC(C)(C)n1cc(C2=C(O)C(=O)C(c3cn(C(C)(C)C=C)c4ccccc34)=C(O)C2=O)c2ccccc21`, the TGI in assay [6] was 4.98 µM.

Regarding `CC1=Nc2ccccc2SC(c2c(Cl)cccc2Cl)C1` (configuration not stated), the TGI in [7] was found to be 3.21 µM; in assay [1], 2.98 µM; in assay [8] it was 1.42 µM; in assay [2] it was 11.1 µM; in [3] it was 23.8 µM; in assay [4] it was 2.19 µM. Further, the TGI in [5] was 3.19 µM.

As for `CN/N=C(/c1nc2ccc([N+](=O)[O-])cc2[nH]c1=O)C(O)c1ccc(C(O)/C(=N\NC)c2nc3ccc([N+](=O)[O-])cc3[nH]c2=O)cc1` (configuration not stated), the TGI in assay [9], in assay [1], in assay [8], in assay [3], in assay [4] and in assay [5] was above 100 µM each time.

With `C#CCN(N=O)C(=O)ON1C(=O)CCC1=O`, the TGI in assay [1], in assay [8], in assay [2], in assay [3], in assay [4] and in [5] was above 100 µM each time.

Take `O=C1CCC2(c3ccccc3)Nc3ccccc3N12` (configuration not stated): the concentration for total growth inhibition (TGI) in assay [7], in [9], in assay [1], in [8], in assay [3] and in assay [5] was above 100 µM each time.

Consider `O=C1c2ccccc2C(=O)C12CCc1ccccc12`, for which the total growth inhibition concentration (TGI) in [7], in assay [9], in assay [1], in [8], in [2] and in [3] was above 100 µM each time. Further, the concentration for total growth inhibition (TGI) in assay [4] and in assay [5] was above 100 µM each time.

With `COc1cc2c(c3c1c(=O)c1ccccc1n3C)C=CC(C)(C)O2`, the TGI in assay [1], in assay [8], in [2], in [3], in assay [4] and in [5] was above 100 µM in each case.

Turning to `CCCc1nc(Cl)nc(Cl)c1Cl`, the concentration for total growth inhibition (TGI) in [6] came to 0.398 µM.

Take `C=C1C(=O)C23[C@H](O)C1CC[C@H]2[C@]12COC3(O)[C@@H](O)[C@@H]1C(C)(C)CC[C@@H]2O`: the TGI came out at 9.82 µM in assay [7]; 22.7 µM in assay [9]; 28.3 µM in assay [1]; 25.1 µM in assay [8]; 24.6 µM in [2]; 16.4 µM in [3]. For the same molecule, the TGI in [4] came out at 27.3 µM; in assay [5], 21.3 µM.

For `CN(C)C(=S)/N=c1\ssc(=S)n1C`, the TGI in [7], in assay [9], in assay [1], in [8], in [2] and in [3] was above 100 µM throughout. For the same molecule, the TGI in [4] and in assay [5] was above 100 µM throughout.

On to `CN(C)c1ccc(/C=C(\NC(=O)c2ccccc2)c2nc3ccc4c(c3[nH]2)C(=O)c2ccccc2C4=O)cc1`, for which the total growth inhibition concentration (TGI) is above 100 µM in [9]; above 100 µM in [1]; 55.7 µM in assay [8]; above 100 µM in assay [3]; above 100 µM in assay [4]; above 100 µM in assay [5].

Consider `COc1ccc(/C=C(\NC(=O)c2ccccc2)c2nc3ccccc3[nH]2)cc1OC`, for which the concentration for total growth inhibition (TGI) in [7], in assay [9], in assay [1], in assay [8], in assay [2] and in [3] was above 100 µM each time. In assay [5], the total growth inhibition concentration (TGI) was above 100 µM.

One may read the GI50 as the concentration giving 50% growth inhibition. On to `CC(=O)OC(C(=O)[O][Sn]([CH3])([CH3])[CH3])c1ccccc1` (configuration not stated), for which the GI50 in [9], in assay [1], in assay [8], in assay [2], in assay [3] and in assay [5] was above 100 µM throughout. Further, the total growth inhibition concentration (TGI) in assay [9], in assay [1], in [8], in [2], in assay [3] and in assay [5] was above 100 µM each time.
